These are literature values, as cited in patent publication US20210401968A1 (priority 2018, published 2021).

Like-named read-outs stand apart in the source and are kept apart here.

Series [1] concerns the target T1, progesterone receptor-based transactivator (Homo sapiens, UniProt P06401).
T1 construct: host or cells: rats (host animal of the cited study)
As to conditions: rats.

T1 sequence (P06401 640-891, added parts left off): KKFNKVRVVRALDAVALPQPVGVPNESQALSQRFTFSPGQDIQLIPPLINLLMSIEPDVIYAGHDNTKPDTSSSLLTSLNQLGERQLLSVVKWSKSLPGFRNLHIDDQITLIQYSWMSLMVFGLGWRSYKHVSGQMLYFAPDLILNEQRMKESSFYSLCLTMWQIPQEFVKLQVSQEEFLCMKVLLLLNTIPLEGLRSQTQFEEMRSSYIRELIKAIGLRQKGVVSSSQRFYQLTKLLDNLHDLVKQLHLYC

For `CC#C[C@]1(O)CC[C@H]2[C@@H]3CCC4=CC(=O)CCC4=C3[C@@H](c3ccc(N(C)C)cc3)C[C@@]21C` [mifepristone], the “amount giving an effective concentration” value in series [1] (i.p.) was 5 µg/kg; in series [1] (orally), “about 10 μg/kg”. Moreover, in the series with luciferase target gene, the “duration of sustained target gene expression after a single heat treatment” value is “at least 6 days”. Further, the “target gene expression after heat treatment” value with luciferase target gene is recorded as “resulted in activation of target gene expression”.
